From US10533010B2, “Substituted indole Mcl-1 inhibitors” (Vanderbilt University, priority 2014, dated 2020)

Biological target: recombinant Mcl-1 (residues 172-327) (Homo sapiens (Human), UniProt Q07820)
Assay: Fluorescence polarization anisotropy competition assay (FITC-Bak or FITC-Bim BH3 peptide) with Mcl-1
Assay type: binding
Details: Table 2; Ki bins given in nM; FITC-Bak or FITC-Bim peptide competition; Ki converted from IC50; read-out: Ki for Inhibition of Mcl-1

recombinant Mcl-1 (residues 172-327), sequence (Q07820 172-327): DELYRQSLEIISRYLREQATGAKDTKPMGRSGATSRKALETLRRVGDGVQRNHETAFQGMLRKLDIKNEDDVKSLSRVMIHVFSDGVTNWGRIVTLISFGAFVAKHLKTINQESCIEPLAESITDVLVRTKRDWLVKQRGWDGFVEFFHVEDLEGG

SMILES | Ki
Cc1cc(OCCCc2c3n(c4c(-c5c(C)nn(C)c5C)c(Cl)ccc24)C[C@H](C)N(Cc2ccc(C(=O)O)cc2)C3=O)cc(C)c1Cl [I-139, (S)-4-((7-chloro-10-(3-(4-chloro-3,5-dimethylphenoxy)propyl)-3-methyl-1-oxo-6-(1,3,5-trimethyl-1H-pyrazol-4-yl)-3,4-dihydropyrazino[1,2-a]indol-2(1H)-yl)methyl)benzoic acid] | < 50 nM
Cc1cc(OCCCc2c3n(c4c(-c5c(C)nn(C)c5C)c(Cl)ccc24)CCN(Cc2ccc(C(=O)O)cc2)C3=O)cc(C)c1Cl [I-140, 4-((7-chloro-10-(3-(4-chloro-3,5-dimethylphenoxy)propyl)-1-oxo-6-(1,3,5-trimethyl-1H-pyrazol-4-yl)-3,4-dihydropyrazino[1,2-a]indol-2(1H)-yl)methyl)benzoic acid] | < 50 nM
Cc1cc(OCCCc2c3n(c4c(-c5c(C)nn(C)c5C)c(Cl)ccc24)CCN(Cc2cccc(C(=O)O)c2)C3=O)cc(C)c1Cl [I-141, 3-((7-chloro-10-(3-(4-chloro-3,5-dimethylphenoxy)propyl)-1-oxo-6-(1,3,5-trimethyl-1H-pyrazol-4-yl)-3,4-dihydropyrazino[1,2-a]indol-2(1H)-yl)methyl)benzoic acid] | < 50 nM
Cc1cc(OCCCc2c3n(c4c(-c5c(C)nn(C)c5C)c(Cl)ccc24)CCN(Cc2ccc(C(=O)O)cn2)C3=O)cc(C)c1Cl [I-142, 6-((7-chloro-10-(3-(4-chloro-3,5-dimethylphenoxy)propyl)-1-oxo-6-(1,3,5-trimethyl-1H-pyrazol-4-yl)-3,4-dihydropyrazino[1,2-a]indol-2(1H)-yl)methyl)nicotinic acid] | < 50 nM
Cc1cc(OCCCc2c3n(c4c(-c5c(C)nn(C)c5C)c(Cl)ccc24)CCN(Cc2ccc(C(=O)O)o2)C3=O)cc(C)c1Cl [I-143, 5-((7-chloro-10-(3-(4-chloro-3,5-dimethylphenoxy)propyl)-1-oxo-6-(1,3,5-trimethyl-1H-pyrazol-4-yl)-3,4-dihydropyrazino[1,2-a]indol-2(1H)-yl)methyl)furan-2-carboxylic acid] | < 50 nM
Cc1cc(OCCCc2c3n(c4c(-c5c(C)nn(C)c5C)c(Cl)ccc24)C(C)[C@@H](C)N(Cc2ccc(C(=O)O)cc2)C3=O)cc(C)c1Cl (stereo partly drawn) [I-144, 4-(((3R)-7-chloro-10-(3-(4-chloro-3,5-dimethylphenoxy)propyl)-3,4-dimethyl-1-oxo-6-(1,3,5-trimethyl-1H-pyrazol-4-yl)-3,4-dihydropyrazino[1,2-a]indol-2(1H)-yl)methyl)benzoic acid] | < 50 nM
Cc1cc(OCCCc2c3n(c4c(-c5c(C)nn(C)c5C)c(Cl)ccc24)C(C)[C@@H](C)N(Cc2cccc(C(=O)O)c2)C3=O)cc(C)c1Cl (stereo partly drawn) [I-145, 3-(((3R)-7-chloro-10-(3-(4-chloro-3,5-dimethylphenoxy)propyl)-3,4-dimethyl-1-oxo-6-(1,3,5-trimethyl-1H-pyrazol-4-yl)-3,4-dihydropyrazino[1,2-a]indol-2(1H)-yl)methyl)benzoic acid] | < 50 nM
Cc1cc(OCCCc2c3n(c4c(-c5c(C)nn(C)c5C)c(Cl)ccc24)C(C)[C@@H](C)N(Cc2ccc(C(=O)O)cn2)C3=O)cc(C)c1Cl (stereo partly drawn) [I-146, 6-(((3R)-7-chloro-10-(3-(4-chloro-3,5-dimethylphenoxy)propyl)-3,4-dimethyl-1-oxo-6-(1,3,5-trimethyl-1H-pyrazol-4-yl)-3,4-dihydropyrazino[1,2-a]indol-2(1H)-yl)methyl)nicotinic acid] | < 50 nM
Cc1cc(OCCCc2c3n(c4c(-c5c(C)nn(C)c5C)c(Cl)ccc24)C(C)[C@@H](C)N(Cc2ccc(C(=O)O)o2)C3=O)cc(C)c1Cl (stereo partly drawn) [I-147, 5-(((3R)-7-chloro-10-(3-(4-chloro-3,5-dimethylphenoxy)propyl)-3,4-dimethyl-1-oxo-6-(1,3,5-trimethyl-1H-pyrazol-4-yl)-3,4-dihydropyrazino[1,2-a]indol-2(1H)-yl)methyl)furan-2-carboxylic acid] | < 50 nM
Cc1cc(OCCCc2c3n(c4c(-c5c(C)nn(C)c5C)c(Cl)ccc24)[C@@H](C)CN(Cc2ccc(C(=O)O)o2)C3=O)cc(C)c1Cl [I-148, (S)-5-((7-chloro-10-(3-(4-chloro-3,5-dimethylphenoxy)propyl)-4-methyl-1-oxo-6-(1,3,5-trimethyl-1H-pyrazol-4-yl)-3,4-dihydropyrazino[1,2-a]indol-2(1H)-yl)methyl)furan-2-carboxylic acid] | < 50 nM
Cc1cc(OCCCc2c3n(c4c(-c5c(C)nn(C)c5C)c(Cl)ccc24)[C@@H](C)CN(Cc2ccc(C(=O)O)cn2)C3=O)cc(C)c1Cl [I-149, (S)-6-((7-chloro-10-(3-(4-chloro-3,5-dimethylphenoxy)propyl)-4-methyl-1-oxo-6-(1,3,5-trimethyl-1H-pyrazol-4-yl)-3,4-dihydropyrazino[1,2-a]indol-2(1H)-yl)methyl)nicotinic acid] | < 50 nM
Cc1cc(OCCCc2c3n(c4c(-c5c(C)nn(C)c5C)c(Cl)ccc24)[C@@H](C)CN(Cc2ccc(C(=O)O)cc2)C3=O)cc(C)c1Cl [I-150, (S)-4-((7-chloro-10-(3-(4-chloro-3,5-dimethylphenoxy)propyl)-4-methyl-1-oxo-6-(1,3,5-trimethyl-1H-pyrazol-4-yl)-3,4-dihydropyrazino[1,2-a]indol-2(1H)-yl)methyl)benzoic acid] | < 50 nM
Cc1cc(OCCCc2c3n(c4c(-c5c(C)nn(C)c5C)c(Cl)ccc24)[C@@H](C)CN(Cc2cccc(C(=O)O)c2)C3=O)cc(C)c1Cl [I-151, (S)-3-((7-chloro-10-(3-(4-chloro-3,5-dimethylphenoxy)propyl)-4-methyl-1-oxo-6-(1,3,5-trimethyl-1H-pyrazol-4-yl)-3,4-dihydropyrazino[1,2-a]indol-2(1H)-yl)methyl)benzoic acid] | < 50 nM
Cc1cc(OCCCc2c3n(c4c(-c5c(C)nn(C)c5C)c(Cl)ccc24)[C@H](C)CN(Cc2ccc(C(=O)O)o2)C3=O)cc(C)c1Cl [I-152, (R)-5-((7-chloro-10-(3-(4-chloro-3,5-dimethylphenoxy)propyl)-4-methyl-1-oxo-6-(1,3,5-trimethyl-1H-pyrazol-4-yl)-3,4-dihydropyrazino[1,2-a]indol-2(1H)-yl)methyl)furan-2-carboxylic acid] | < 50 nM
Cc1cc(OCCCc2c3n(c4c(-c5c(C)nn(C)c5C)c(Cl)ccc24)[C@H](C)CN(Cc2ccc(C(=O)O)cn2)C3=O)cc(C)c1Cl [I-153, (R)-6-((7-chloro-10-(3-(4-chloro-3,5-dimethylphenoxy)propyl)-4-methyl-1-oxo-6-(1,3,5-trimethyl-1H-pyrazol-4-yl)-3,4-dihydropyrazino[1,2-a]indol-2(1H)-yl)methyl)nicotinic acid] | < 50 nM
Cc1cc(OCCCc2c3n(c4c(-c5c(C)nn(C)c5C)c(Cl)ccc24)[C@H](C)CN(Cc2ccc(C(=O)O)cc2)C3=O)cc(C)c1Cl [I-154, (R)-4-((7-chloro-10-(3-(4-chloro-3,5-dimethylphenoxy)propyl)-4-methyl-1-oxo-6-(1,3,5-trimethyl-1H-pyrazol-4-yl)-3,4-dihydropyrazino[1,2-a]indol-2(1H)-yl)methyl)benzoic acid] | < 50 nM
Cc1cc(OCCCc2c3n(c4c(-c5c(C)nn(C)c5C)c(Cl)ccc24)[C@H](C)CN(Cc2cccc(C(=O)O)c2)C3=O)cc(C)c1Cl [I-155, (R)-3-((7-chloro-10-(3-(4-chloro-3,5-dimethylphenoxy)propyl)-4-methyl-1-oxo-6-(1,3,5-trimethyl-1H-pyrazol-4-yl)-3,4-dihydropyrazino[1,2-a]indol-2(1H)-yl)methyl)benzoic acid] | < 50 nM
